In patent US5231107A, “Derivatives of the oxime of 1,2,5,6-tetrahydropyridine 3-carboxaldehyde, the process for their preparation, their use as medicaments and the compositions containing them” (priority 1987, dated 1993):
Where two headings read alike, the source gives them in different places.

What was measured:
Hypothermic activity = type: in vivo, male mice (CD1 Charles Rivers); conditions: Mus musculus, read-out: Effective dose (-1° C.)
Method: The test is carried out on male mice (CD1 Charles Rivers) weighing 25-30 g, which have fasted for 6 hours.
The temperature of the body is noted by means of a thermocouple inserted about 1.5 cm in the rectum and connected to an electric temperature recorder.
The products are administered by oral or sub-cutaneous route and the temperatures are noted at the instant 0 and at 30 minutes, 1 hour, 2 hours and 2-and-a-half hours after treatment.
The degree of hypothermia is evaluated as the difference between the treated animals and the controls, and the dose necessary to reduce the body temperature by 1° C. is noted.

in vivo = test: in vivo; set-up: species or system male mice (CD1 Charles Rivers); conditions: oral route; male CD1 mice; method of Miller and Tainter
Method: The test is carried out on male mice (CD1 Charles Rivers) weighing 25 to 30 g, which have fasted for 6 hours. The product dissolved at 5% in methocel is administered by oral route by means of an oesophage probe.
Control animals receive only the excipient.
After treatment, the animals are placed separately in cages of which the base is covered with blotting paper, and they are put under observation for 30, 60, 120 and 180 minutes.
The sheets of absorbent paper are changed after each observation.
The consistency of the feces is evaluated according to the method of Randall and Baruth (Arch. Int. Pharmacodyn. 220, 94, 1976) according to the following scale of values.
1: feces slightly soft, with or without a damp halo,
2: feces slightly soft, with a well-defined circle of humidity,
3: feces soft with a large circle of humidity,
4: feces without consistency with a very large circle of humidity.
For each product, the dose is noted which causes diarrhoea in 50% of the animals according to the method of Miller and Tainter (Proc. Soc. Exp. Biol. Med., 57, 261, 1944).

[1] = test system: central cholinergic system; conditions: in vivo; cited from earlier work
[2] = intravenous route; cited from earlier work
[3] = test system: ileum isolated from guinea-pig; test: Test of ileum isolated from guinea-pig; conditions: Cavia porcellus, agonist activity, Tyrode solution, 37° C., read-out: pD2 (negative logarithm of the dose which produces 50% of the maximum effect) (converted)
Method: Pieces of ileum are removed from guinea-pigs killed by decapitation. The isolated ileum is placed in 10 cm^3 of Tyrode solution at 37° C. and aerated with a mixture of oxygen (95%) and carbon dioxide gas (5%). The contractions due to the products are registered by means of a detector connected to a polygraph. […].
The possible antagonist activity of the products is tested vis-a-vis acetylcholine.
The agonist activity is expressed in pD2 (negative logarithm of the dose which produces 50% of the maximum effect).
The antagonist activity is expressed in DE50 (dose reducing by 50% the maximum response induced by acetylcholine).

## COC(=O)C1=CCCN(C)C1 [Arecoline, arecoline, reference compound]
Hypothermic activity; oral route (O.R.)
  ED (-1 C): 194 mg/kg
Hypothermic activity; sub-cutaneous route (SC.R)
  ED (-1 C): 3 mg/kg
In vivo
  DE50 (dose which causes diarrhoea in 50% of the animals): 35 mg/kg
[1]
  duration of action of arecoline: short duration of action
[2]
  effect on patients having a memory defect: positive effect
[3]
  EC50: 0.331 µM
